Here are results for six compounds from patent US20240208992A1, “MACROCYCLES AS CFTR MODULATORS” (Idorsia Pharmaceuticals Ltd, priority 2021, published 2024).

The assay concerns the target human F508del-CFTR (Homo sapiens, UniProt P13569, DEL508-508). Description: F508del-CFTR cell surface expression (corrector activity), DiscoveRx ß-galactosidase complementation chemiluminescence assay in recombinant U2OS cell line.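 As to all read-outs here: U2OS cells co-expressing ProLink-tagged F508del-CFTR and a membrane-anchored enzyme acceptor, where more surface CFTR restores β-galactosidase activity measured by chemiluminescence.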 The conditions noted are these: for EC50: EC50, F508del-CFTR cell surface expression, U2OS cells, 16h compound incubation, geomean values; for Emax: U2OS, in relation to Emax of corrector lumacaftor (=100%), arithmetic mean values.

human F508del-CFTR, sequence (P13569 with tags, fused parts or gaps DEL508-508): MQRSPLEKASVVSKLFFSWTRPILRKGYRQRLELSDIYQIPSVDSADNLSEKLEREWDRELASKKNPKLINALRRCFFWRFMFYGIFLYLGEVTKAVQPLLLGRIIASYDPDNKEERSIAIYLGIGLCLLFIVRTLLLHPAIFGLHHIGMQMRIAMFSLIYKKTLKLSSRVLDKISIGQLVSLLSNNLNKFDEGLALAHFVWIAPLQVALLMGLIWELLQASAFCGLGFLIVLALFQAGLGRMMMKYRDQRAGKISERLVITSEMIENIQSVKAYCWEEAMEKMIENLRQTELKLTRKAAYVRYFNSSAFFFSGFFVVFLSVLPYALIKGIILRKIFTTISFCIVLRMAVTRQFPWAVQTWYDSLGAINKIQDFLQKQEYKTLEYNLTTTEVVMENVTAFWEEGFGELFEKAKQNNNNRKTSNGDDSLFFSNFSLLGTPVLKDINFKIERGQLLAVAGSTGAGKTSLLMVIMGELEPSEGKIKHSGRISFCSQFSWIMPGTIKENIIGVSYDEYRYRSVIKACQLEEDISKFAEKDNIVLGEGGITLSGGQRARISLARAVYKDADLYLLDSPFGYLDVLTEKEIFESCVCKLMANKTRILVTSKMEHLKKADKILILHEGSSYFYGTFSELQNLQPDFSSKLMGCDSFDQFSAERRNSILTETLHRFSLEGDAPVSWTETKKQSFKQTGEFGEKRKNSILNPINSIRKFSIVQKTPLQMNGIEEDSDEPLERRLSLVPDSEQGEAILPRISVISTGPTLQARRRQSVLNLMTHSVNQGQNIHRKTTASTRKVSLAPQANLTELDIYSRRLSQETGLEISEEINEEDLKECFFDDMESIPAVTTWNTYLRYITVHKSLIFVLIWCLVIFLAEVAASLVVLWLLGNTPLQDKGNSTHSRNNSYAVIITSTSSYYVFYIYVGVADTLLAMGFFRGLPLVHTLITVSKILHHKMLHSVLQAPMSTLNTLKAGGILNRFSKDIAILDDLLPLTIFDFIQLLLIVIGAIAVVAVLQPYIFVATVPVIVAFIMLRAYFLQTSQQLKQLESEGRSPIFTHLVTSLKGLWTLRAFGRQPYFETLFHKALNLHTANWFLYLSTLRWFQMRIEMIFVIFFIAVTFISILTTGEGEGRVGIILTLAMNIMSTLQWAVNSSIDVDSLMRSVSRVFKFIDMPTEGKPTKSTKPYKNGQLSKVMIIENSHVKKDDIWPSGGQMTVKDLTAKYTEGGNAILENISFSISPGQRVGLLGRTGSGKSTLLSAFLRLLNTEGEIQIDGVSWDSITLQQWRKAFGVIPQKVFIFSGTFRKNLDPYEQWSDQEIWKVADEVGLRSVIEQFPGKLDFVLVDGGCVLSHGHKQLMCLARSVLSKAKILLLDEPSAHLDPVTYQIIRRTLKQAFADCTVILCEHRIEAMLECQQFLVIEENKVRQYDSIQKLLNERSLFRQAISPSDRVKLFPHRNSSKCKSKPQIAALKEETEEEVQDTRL

As usually defined, the EC50 is the concentration needed to bring the measured effect to its halfway point. What is called Emax is the maximal effect, on the per cent scale that the assay sets. On to `[2H]C1([2H])Oc2ccc3c(c2O1)C(=O)N[C@H](C(=O)NCCc1ccc(-n2nccn2)cc1)CC(=O)N(C)[C@@H](CC(C)C)C(=O)N1CCCC[C@@H]1C(=O)N[C@H](Cc1ccccc1)CO3` [Example 653, (8S,12S,18aR,21R)-N-(4-(2H-1,2,3-triazol-2-yl)phenethyl)-21-benzyl-12-isobutyl-11-methyl-6,10,13,19-tetraoxo-6,7,8,9,10,11,12,13,16,17,18,18a,19,20,21,22-hexadecahydro-15H-[1,3]dioxolo[4′,5′:5,6]benzo[1,2-p]pyrido[2,1-f][1]oxa[4,7,10,14]tetraazacycloheptadecine-4,4-d2-8-carboxamide], for which the half-maximal effective concentration (EC50) was found to be 332 nM and the Emax was 140%.

Consider `Cc1cc(CCNC(=O)[C@@H]2CC(=O)N(C)[C@@H](CC(C)C)C(=O)N(C)C3(CC3)C(=O)N[C@H](Cc3ccccc3)COc3ccc4ccccc4c3C(=O)N2)on1` [Example 654, (3′S,7′S,13′R)-13′-benzyl-7′-isobutyl-6′,9′-dimethyl-N-(2-(3-methylisoxazol-5-yl)ethyl)-1′,5′,8′,11′-tetraoxo-2′,3′,4′,5′,6′,7′,8′,9′,11′,12′,13′,14′-dodecahydro-1′H-spiro[cyclopropane-1,10′-naphtho[1,2-p][1]oxa[4,7,10,14]tetraazacycloheptadecine]-3′-carboxamide], for which the EC50 was 290 nM and the maximal response (Emax) is 330%.

In the case of `CC(C)C[C@H]1C(=O)N2CCCC[C@@H]2C(=O)N[C@H](Cc2ccccc2)COc2ccc3ncc(F)cc3c2C(=O)N[C@H](C(=O)NCCc2cc(C3CC3)no2)CC(=O)N1C` [Example 655, (9S,13S,19aR,22R)-22-benzyl-N-(2-(3-cyclopropylisoxazol-5-yl)ethyl)-5-fluoro-13-isobutyl-12-methyl-7,11,14,20-tetraoxo-7,8,9,10,11,12,13,14,17,18,19,19a,20,21,22,23-hexadecahydro-16H-pyrido[2′,1′:6,7][1]oxa[4,7,10,14]tetraazacycloheptadecino[16,17-f]quinoline-9-carboxamide], the concentration for a half-maximal effect (EC50) amounted to 150 nM and the Emax was found to be 318%.

For `COc1nc(C)cc2c1C(=O)N[C@H](C(=O)NCCc1nc(C3CC3)no1)CC(=O)N(C)[C@@H](CC(C)C)C(=O)N1CCCC[C@@H]1C(=O)N[C@H](Cc1ccccc1)CO2` [Example 656, (7S,11S,17aR,20R)-20-benzyl-N-(2-(3-cyclopropyl-1,2,4-oxadiazol-5-yl)ethyl)-11-isobutyl-4-methoxy-2,10-dimethyl-5,9,12,18-tetraoxo-5,6,7,8,9,10,11,12,15,16,17,17a,18,19,20,21-hexadecahydro-14H-dipyrido[2,1-f:3′,4′-p][1]oxa[4,7,10,14]tetraazacycloheptadecine-7-carboxamide], the concentration for a half-maximal effect (EC50) came out at 357 nM and the maximum response (Emax) was 327%.

As to `[2H]C([2H])([2H])Oc1nc(C)cc2c1C(=O)N[C@H](C(=O)NCCc1nc(C3CC3)no1)CC(=O)N(C)[C@@H](CC(C)C)C(=O)N1CCCC[C@@H]1C(=O)N[C@H](Cc1ccccc1)CO2` [Example 657, (7S,11S,17aR,20R)-20-benzyl-N-(2-(3-cyclopropyl-1,2,4-oxadiazol-5-yl)ethyl)-11-isobutyl-4-(methoxy-d3)-2,10-dimethyl-5,9,12,18-tetraoxo-5,6,7,8,9,10,11,12,15,16,17,17a,18,19,20,21-hexadecahydro-14H-dipyrido[2,1-f:3′,4′-p][1]oxa[4,7,10,14]tetraazacycloheptadecine-7-carboxamide], the EC50 was found to be 347 nM and the maximal effect (Emax) was 291%.

Take `COc1nc(C)cc2c1C(=O)N[C@H](C(=O)NCCc1cc(C3CC3)no1)CC(=O)N(C)[C@@H](CC(C)C)C(=O)N1CCCC[C@@H]1C(=O)N[C@H](Cc1ccccc1)CO2` [Example 658, (7S,11S,17aR,20R)-20-benzyl-N-(2-(3-cyclopropylisoxazol-5-yl)ethyl)-11-isobutyl-4-methoxy-2,10-dimethyl-5,9,12,18-tetraoxo-5,6,7,8,9,10,11,12,15,16,17,17a,18,19,20,21-hexadecahydro-14H-dipyrido[2,1-f:3′,4′-p][1]oxa[4,7,10,14]tetraazacycloheptadecine-7-carboxamide]: the EC50 is 283 nM and the Emax stood at 300%.
